{"source": "patent US4092426A", "about": "“Novel aminobenzoic acid derivatives, process for preparing the same and pharmaceutical composition containing the same” (Chugai Seiyaku Kabushiki Kaisha, priority 1975, dated 1978)", "key": {"[1]": {"system": "Pseudomonas aeruginosa Pa-II", "test": "Activity for Protecting from Infection by Bucillus Pyocyaneous, with carbenicillin", "type": "in vivo", "conditions": "mouse; with carbenicillin", "method": "As test animals, ddY strain male mice (5 week old) which were divided into groups of 9 members each were used. Each mouse was intraperitoneally administered with 10^6 Pseudomonas aeruginosa Pa-II, and 1.5 hours after the administeration, subcutaneously administered one shot of carbenicillin, an antibiotic. The test compound, disodium salt of N-2'-carboxyphenyl-4-chloroanthranilic acid, was orally administered once a day in a dose of 2 mg/head one and two days before the inoculation, respectively. The activity of the test compound was evaluated by observing the test animals for 54 hours after the inoculation."}, "Adjuvant arthritis": {"system": "Adjuvant arthritis", "test": "Activity for Treating Adjuvant Arthritis (hind paw volume)", "type": "in vivo, Sprague Dawley strain male rats", "method": "Sprague Dawley strain male rats (eight week old) were used as test animals. […] Seventeen days after the sensitization, degree of swelling of hind pawls of each rat was determined by measuring the volume of its hind paws and the rats were divided into groups of 10 members each so that average degree of swelling for each of the groups was approximately equal. Each group of rats was orally administered with the test compound, disodium salt of N-2'-carboxyphenyl-4-chloroanthranilic acid, in a dose as shown in Table 5 once a day for a week starting on the seventeenth day after the sensitization. Degree of swelling of hind paws of each rat was measured every second or third day after the completion of the administration of the test compound till the 31st day from the sensitization. The reduction in volume of the hind paws was used as an index to evaluate the pharmacological activity.\nThe results of the statistical test which was made on the values obtained on the 24th and 31st days from the sensitization are shown in Table 5."}, "lymphocites [2]": {"system": "lymphocites", "test": "Activity for Promoting Blastogenesis of Lymphocites (in vitro)", "type": "cell-based, C3 H/He strain male mice", "conditions": "10^-1 to 10^-2 μg/ml", "method": "In this Experiment, influence of the test compound disodium salt of N-2'-carboxyphenyl-4-chloroanthranilic acid on blastogenesis of lymphocites was studied by the use of spleen cells and lymphonoid cells of mouse and rat. For in vitro test, C3 H/He strain male mice and for in vivo Wistar-Imamichi strain male rats were used respectively. Concanavallin A manufactured by Sigma was used as the blastogenetic factor in the in vitro test and lymphocites were cultured by the use of medium of RPMI 1640 manufactured by Grand Island Biological Co. The cultivation of the lymphocites was carried out in the medium at 37° C in a 5% carbon dioxide atmosphere for about 48 hours and after the addition of 0.5 μCi/ml of ^3 H-thymidine, the cells in the medium were incubated for 16 hours and then the lymphocites were separated. The radioactivity of the separated cells was measured by a scintillation counter and the value was evaluated as an indicator of blastogenetic degree. For the in vivo test, the in vitro test was repeated except that each rat was orally administered with the test compound in a dose of 5 or 50 mg/kg. In this case, the rats administered with the test compound were divided into groups of 3 members each and the cells to be cultivated from the rats in each group were placed under the same cultivation conditions. […]"}, "[3]": {"system": "Salmonella enteritidis TO-1", "test": "Activity for Protecting from Infection by Salmonellae, with streptomycine", "type": "in vivo", "conditions": "mouse; oral 2 mg/head; with streptomycine 0.5 mg/head s.c.", "quoted_text": "As test animals, ddY strain male mice (5 week old) which were divided into groups of 7 members each were used. Each mouse was intraperitoneally inoculated with 10^5 Salmonella enteritidis TO-1, and 3 hours after the inoculation, was subcutaneously administered one shot of streptomycine in a dose of 0.5 mg/head."}, "Sarcoma-180": {"system": "Sarcoma-180", "test": "growth of Sarcoma-180 tumor cells in vitro", "type": "cell-based"}, "AH-13": {"system": "AH-13", "test": "Antitumor Activity to Transplanted Cancer Cells (AH-13)", "type": "in vivo, Donryu strain female rats", "conditions": "for Average Survival Terms: control 7.1", "description": "As test animals, Donryu strain female rats (8 week old) which were divided into groups of 10 members each were used. Each rat was intraperitoneally administered with test compound, disodium salt of N-2'-carboxyphenyl-4-chloroanthranilic acid, once a day for 10 days from 16 days before the inoculation of the tumor cells disclosed hereinbelow. Sixteen days after the first administration of the test compound, each rat was intraperitoneally inoculated with 10^6 tumor cells identified as AH-13 to induce cancer of abdominal dropsy."}, "lymphocites [4]": {"system": "lymphocites", "test": "Activity for Promoting Blastogenesis of Lymphocites (in vivo)", "set-up": "species or system Wistar-Imamichi strain male rats", "method": "In this Experiment, influence of the test compound disodium salt of N-2'-carboxyphenyl-4-chloroanthranilic acid on blastogenesis of lymphocites was studied by the use of spleen cells and lymphonoid cells of mouse and rat. For in vitro test, C3 H/He strain male mice and for in vivo Wistar-Imamichi strain male rats were used respectively. Concanavallin A manufactured by Sigma was used as the blastogenetic factor in the in vitro test and lymphocites were cultured by the use of medium of RPMI 1640 manufactured by Grand Island Biological Co. The cultivation of the lymphocites was carried out in the medium at 37° C in a 5% carbon dioxide atmosphere for about 48 hours and after the addition of 0.5 μCi/ml of ^3 H-thymidine, the cells in the medium were incubated for 16 hours and then the lymphocites were separated. The radioactivity of the separated cells was measured by a scintillation counter and the value was evaluated as an indicator of blastogenetic degree. For the in vivo test, the in vitro test was repeated except that each rat was orally administered with the test compound in a dose of 5 or 50 mg/kg. In this case, the rats administered with the test compound were divided into groups of 3 members each and the cells to be cultivated from the rats in each group were placed under the same cultivation conditions. The results of the experiments are shown in FIG. 4 (in vitro) and FIG. 5 (in vivo), respectively."}, "[5]": {"system": "Pseudomonas aeruginosa Pa-II", "test": "Activity for Protecting from Infection by Bucillus Pyocyaneous", "type": "in vivo", "conditions": "oral 2 mg/head; for Survival Terms: individual animals", "description": "As test animals, ddY strain male mice (5 week old) which were divided into groups of 7 members each were used. Each mouse was intraperitoneally inoculated with bucillus pyocyaneous, Pseudomonas aeruginosa Pa-II."}, "[6]": {"system": "plaque forming cells (PFC) in the spleen", "test": "Activity for Recovering Immune Depletion by cortisone: plaque forming cells (PFC) in the spleen", "type": "in vivo, IV CS strain male mice", "conditions": "10 mg/kg oral, cortisone-treated", "method": "As test animals, IV CS strain male mice (5 week old) were used by dividing them into groups of 5 members each. Each mouse was intraperitoneally administered with cortisone in a dose of 60 mg/kg once a day for 5 days. Three days after the first administration, the sensitization with an antigen, sheep red blood cell (SRBC), was made by injecting the antigen into the mouse through the tail vein. Each mouse was orally administered with the test compound, disodium salt of N-2'-carboxyphenyl-4-chloroanthranilic acid, a day after the sensitization. Five days after the sensitization, the number of plaque forming cells (PFC) in the spleen was measured in a usual manner."}}, "note": "Counter-ions that a name gives are not always drawn."}
{"smiles": "O=C(O)c1ccccc1Nc1cc(Cl)ccc1C(=O)O", "note": "[disodium salt of N-2'-carboxyphenyl-4-chloroanthranilic acid]", "values": [{"measurement": "bacteriocidal activity of the antibiotic with the test compound", "setting": "[1]", "result": "improved bacteriocidal activity"}, {"measurement": "volume of hind paws", "setting": "Adjuvant arthritis; 0.1 mg/kg oral, day 24 after the sensitization", "result": "3.524 ± 0.170", "unit": "mL"}, {"measurement": "volume of hind paws", "setting": "Adjuvant arthritis; 0.1 mg/kg oral, day 31 after the sensitization", "result": "3.762 ± 0.216", "unit": "mL"}, {"measurement": "volume of hind paws", "setting": "Adjuvant arthritis; 1 mg/kg oral, day 24 after the sensitization", "result": "3.214 ± 0.161", "unit": "mL"}, {"measurement": "volume of hind paws", "setting": "Adjuvant arthritis; 1 mg/kg oral, day 31 after the sensitization", "result": "3.289 ± 0.223", "unit": "mL"}, {"measurement": "volume of hind paws", "setting": "Adjuvant arthritis; 5 mg/kg oral, day 24 after the sensitization, ** P<0.01", "result": "3.175 ± 0.100", "unit": "mL"}, {"measurement": "volume of hind paws", "setting": "Adjuvant arthritis; 5 mg/kg oral, day 31 after the sensitization, * P<0.05", "result": "3.102 ± 0.141", "unit": "mL"}, {"measurement": "volume of hind paws", "setting": "Adjuvant arthritis; 10 mg/kg oral, day 24 after the sensitization, ** P<0.01", "result": "3.027 ± 0.126", "unit": "mL"}, {"measurement": "volume of hind paws", "setting": "Adjuvant arthritis; 10 mg/kg oral, day 31 after the sensitization, * P<0.05", "result": "3.121 ± 0.176", "unit": "mL"}, {"measurement": "volume of hind paws", "setting": "Adjuvant arthritis; 100 mg/kg oral, day 24 after the sensitization", "result": "3.350 ± 0.168", "unit": "mL"}, {"measurement": "volume of hind paws", "setting": "Adjuvant arthritis; 100 mg/kg oral, day 31 after the sensitization", "result": "3.482 ± 0.170", "unit": "mL"}, {"measurement": "activity for treating adjuvant arthritis of rat", "setting": "Adjuvant arthritis; 5 or 10 mg/kg oral", "result": "significant level of activity"}, {"measurement": "activity of Concanavallin A (blastogenesis of lymphocites)", "setting": "lymphocites [2]", "result": "improved the activity of Concanavallin A"}, {"measurement": "bacteriocidal activity of the antibiotic with the test compound", "setting": "[3]", "result": "improved bacteriocidal activity"}, {"measurement": "direct antitumor activity on Sarcoma-180 cells", "setting": "Sarcoma-180; directly on the cells", "result": "no antitumor activity directly on the cells"}, {"measurement": "growth of Sarcoma-180 cells in vitro", "setting": "Sarcoma-180; in vitro", "result": "does not suppress the growth"}, {"measurement": "T/C", "setting": "AH-13; 50 mg/kg i.p.", "result": 163, "unit": "%"}, {"measurement": "host-mediated antitumor activity (AH-13)", "setting": "AH-13; 50 mg/kg i.p.", "result": "exhibits host-mediated antitumor activity"}, {"measurement": "Average Survival Terms", "setting": "AH-13; 50 mg/kg i.p.", "result": 11.6, "unit": "days"}, {"measurement": "T/C", "setting": "AH-13; 100 mg/kg i.p.", "result": 103, "unit": "%"}, {"measurement": "Average Survival Terms", "setting": "AH-13; 100 mg/kg i.p.", "result": 7.3, "unit": "days"}, {"measurement": "T/C", "setting": "AH-13; 200 mg/kg i.p.", "result": 97, "unit": "%"}, {"measurement": "Average Survival Terms", "setting": "AH-13; 200 mg/kg i.p.", "result": 6.9, "unit": "days"}, {"measurement": "degree of promotion (S.I. value) of blastogenesis", "setting": "lymphocites [4]; rat, oral 5 or 50 mg/kg, one day before Concanavallin A", "result": "about twice as large as that of the control"}, {"measurement": "activity of Concanavallin A", "setting": "lymphocites [4]; rat, oral 5 or 50 mg/kg, one day before Concanavallin A, vs control", "result": "increased to about double"}, {"measurement": "improvement of the activity of Concanavallin A", "setting": "lymphocites [4]; rats or mice, four days before Concanavallin A", "result": "the improvement of the activity was observed"}, {"measurement": "Survival Terms", "setting": "[5]; 2 × 10^4 bacteria/head, mouse, S: survival at 54 hours", "result": "S,S,S,S,S and S,S"}, {"measurement": "Dead Animal/Test Animal", "setting": "[5]; 2 × 10^4 bacteria/head, control 1/7", "result": "0/7"}, {"measurement": "activity for protecting from the bacterial infection", "setting": "[5]; 2 × 10^5 bacteria per head", "result": "activity of the test compound for protecting from the bacterial infection was observed"}, {"measurement": "Survival Terms", "setting": "[5]; 2 × 10^5 bacteria/head, mouse, S: survival at 54 hours", "result": "S,S"}, {"measurement": "Dead Animal/Test Animal", "setting": "[5]; 2 × 10^5 bacteria/head, control 6/7", "result": "1/7"}, {"measurement": "Survival Terms", "setting": "[5]; 2 × 10^6 bacteria/head, mouse", "result": "29,29 hours"}, {"measurement": "Dead Animal/Test Animal", "setting": "[5]; 2 × 10^6 bacteria/head, control 7/7", "result": "7/7"}, {"measurement": "effect on bacillary toxin", "setting": "[5]; mouse", "result": "acts to lower the bacillary toxin"}, {"measurement": "number of PFC", "setting": "[6]", "result": "significantly increased"}]}
